Measurements from patent US9693556B2, “Herbicidal pyridazinone derivatives” (SYNGENTA LIMITED, priority 2011, dated 2017).

Columns and labels:
Type in all cases: in vivo
[1] = test system: Amaranthus retoflexus (AMARE); assay: Post-emergence herbicidal glasshouse test on Amaranthus retoflexus
Summary of the method: (§1)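 Scored on a five-point scale (1 = 0-19% to 5 = 80-100% damage) 13 days after treatment. Application rate 1000 g/h in acetone/water (50:50) containing 0.5% Tween 20, sprayed one day post-sowing for pre-emergence or eight days for post-emergence; glasshouse at 24/16° C, 14 h light, 65% humidity.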

Setaria faberi (SETFA) [2] = assay: Post-emergence herbicidal glasshouse test on Setaria faberi
Summary of the method: as §1

[3] = test system: Echinochloa crus-galli (ECHCG); assay: Pre-emergence herbicidal glasshouse test on Echinochloa crus-galli
Summary of the method: as §1

Setaria faberi (SETFA) [4] = assay: Pre-emergence herbicidal glasshouse test on Setaria faberi
Summary of the method: as §1

[5] = test system: Alopecurus myosuroides (ALOMY); assay: Post-emergence herbicidal glasshouse test on Alopecurus myosuroides
Summary of the method: as §1

[6] = test system: Ipomoea hederacea (IPOHE); assay: Post-emergence herbicidal glasshouse test on Ipomoea hederacea
Summary of the method: as §1

Solanum nigrum (SOLNI) [7] = assay: Pre-emergence herbicidal glasshouse test on Solanum nigrum
Summary of the method: as §1

[8] = test system: Alopecurus myosuroides (ALOMY); assay: Pre-emergence herbicidal glasshouse test on Alopecurus myosuroides
Summary of the method: as §1

[9] = test system: Amaranthus retoflexus (AMARE); assay: Pre-emergence herbicidal glasshouse test on Amaranthus retoflexus
Summary of the method: as §1

[10] = test system: Echinochloa crus-galli (ECHCG); assay: Post-emergence herbicidal glasshouse test on Echinochloa crus-galli
Summary of the method: as §1

Solanum nigrum (SOLNI) [11] = assay: Post-emergence herbicidal glasshouse test on Solanum nigrum
Summary of the method: as §1

[12] = test system: Ipomoea hederacea (IPOHE); assay: Pre-emergence herbicidal glasshouse test on Ipomoea hederacea
Summary of the method: as §1

[13] = post-emergence, 1000 g/h, evaluated after 13 days, five point scale
[14] = pre-emergence, 1000 g/h, evaluated after 13 days, five point scale
[15] = post-emergence, 1000 g/h, evaluated after 13 days
[16] = pre-emergence, 1000 g/h, evaluated after 13 days

Cn1ncc(-c2c(S(C)(=O)=O)ccc(Br)c2Br)c(O)c1=O [Compound 1.161]
herbicidal damage, POST Application AMARE [1, 13]: 5 (5=80-100% damage)
herbicidal damage, POST Application SETFA (Setaria faberi (SETFA) [2]; [13]): 4 (4=60-79% damage)
herbicidal damage, PRE Application ECHCG [3, 14]: 1 (1=0-19% damage)
herbicidal damage, PRE Application SETFA (Setaria faberi (SETFA) [4]; [14]): 1 (1=0-19% damage)
herbicidal damage, POST Application ALOMY [5, 13]: 3 (3=40-59% damage)
herbicidal damage, POST Application IPOHE [6, 13]: 2 (2=20-39% damage)
herbicidal damage, PRE Application SOLNI (Solanum nigrum (SOLNI) [7]; [14]): 1 (1=0-19% damage)
herbicidal damage, PRE Application ALOMY [8, 14]: 1 (1=0-19% damage)
herbicidal damage, PRE Application AMARE [9, 14]: 3 (3=40-59% damage)
herbicidal damage, POST Application ECHCG [10, 13]: 4 (4=60-79% damage)
herbicidal damage, POST Application SOLNI (Solanum nigrum (SOLNI) [11]; [13]): 4 (4=60-79% damage)
herbicidal damage, PRE Application IPOHE [12, 14]: 1 (1=0-19% damage)

COCn1ncc(-c2ccccc2[S+](C)[O-])c(O)c1=O (stereo not drawn) [Compound 1.145]
POST Application AMARE herbicidal damage (five point scale) [1, 15]: 5 (5=80-100% damage)
POST Application SETFA herbicidal damage (five point scale) (Setaria faberi (SETFA) [2]; [15]): 5 (5=80-100% damage)
PRE Application ECHCG herbicidal damage (five point scale) [3, 16]: 4 (4=60-79% damage)
PRE Application SETFA herbicidal damage (five point scale) (Setaria faberi (SETFA) [4]; [16]): 2 (2=20-39% damage)
POST Application ALOMY herbicidal damage (five point scale) [5, 15]: 3 (3=40-59% damage)
POST Application IPOHE herbicidal damage (five point scale) [6, 15]: 5 (5=80-100% damage)
PRE Application SOLNI herbicidal damage (five point scale) (Solanum nigrum (SOLNI) [7]; [16]): 2 (2=20-39% damage)
PRE Application ALOMY herbicidal damage (five point scale) [8, 16]: 1 (1=0-19% damage)
PRE Application AMARE herbicidal damage (five point scale) [9, 16]: 5 (5=80-100% damage)
POST Application ECHCG herbicidal damage (five point scale) [10, 15]: 5 (5=80-100% damage)
POST Application SOLNI herbicidal damage (five point scale) (Solanum nigrum (SOLNI) [11]; [15]): 5 (5=80-100% damage)
PRE Application IPOHE herbicidal damage (five point scale) [12, 16]: 1 (1=0-19% damage)

Cn1ncc(-c2ccc(S(C)(=O)=O)c(O)c2Cl)c(O)c1=O [Compound 1.108]
POST Application AMARE herbicidal damage (five point scale) [1, 15]: 3 (3=40-59% damage)
POST Application SETFA herbicidal damage (five point scale) (Setaria faberi (SETFA) [2]; [15]): 1 (1=0-19% damage)
PRE Application ECHCG herbicidal damage (five point scale) [3, 16]: 1 (1=0-19% damage)
PRE Application SETFA herbicidal damage (five point scale) (Setaria faberi (SETFA) [4]; [16]): 1 (1=0-19% damage)
POST Application ALOMY herbicidal damage (five point scale) [5, 15]: 1 (1=0-19% damage)
POST Application IPOHE herbicidal damage (five point scale) [6, 15]: 1 (1=0-19% damage)
PRE Application SOLNI herbicidal damage (five point scale) (Solanum nigrum (SOLNI) [7]; [16]): 1 (1=0-19% damage)
PRE Application ALOMY herbicidal damage (five point scale) [8, 16]: 1 (1=0-19% damage)
PRE Application AMARE herbicidal damage (five point scale) [9, 16]: 1 (1=0-19% damage)
POST Application ECHCG herbicidal damage (five point scale) [10, 15]: 1 (1=0-19% damage)
POST Application SOLNI herbicidal damage (five point scale) (Solanum nigrum (SOLNI) [11]; [15]): 3 (3=40-59% damage)
PRE Application IPOHE herbicidal damage (five point scale) [12, 16]: 1 (1=0-19% damage)

Cn1ncc(-n2ccc(-c3ccc(C(F)(F)F)cc3)cc2=O)c(O)c1=O [Compound 1.023]
POST Application AMARE herbicidal damage (five point scale) [1, 15]: 3 (3=40-59% damage)
POST Application SETFA herbicidal damage (five point scale) (Setaria faberi (SETFA) [2]; [15]): 4 (4=60-79% damage)
PRE Application ECHCG herbicidal damage (five point scale) [3, 16]: 1 (1=0-19% damage)
PRE Application SETFA herbicidal damage (five point scale) (Setaria faberi (SETFA) [4]; [16]): 4 (4=60-79% damage)
POST Application ALOMY herbicidal damage (five point scale) [5, 15]: 2 (2=20-39% damage)
POST Application IPOHE herbicidal damage (five point scale) [6, 15]: 1 (1=0-19% damage)
PRE Application SOLNI herbicidal damage (five point scale) (Solanum nigrum (SOLNI) [7]; [16]): 1 (1=0-19% damage)
PRE Application ALOMY herbicidal damage (five point scale) [8, 16]: 2 (2=20-39% damage)
PRE Application AMARE herbicidal damage (five point scale) [9, 16]: 5 (5=80-100% damage)
POST Application ECHCG herbicidal damage (five point scale) [10, 15]: 1 (1=0-19% damage)
POST Application SOLNI herbicidal damage (five point scale) (Solanum nigrum (SOLNI) [11]; [15]): 2 (2=20-39% damage)
PRE Application IPOHE herbicidal damage (five point scale) [12, 16]: 1 (1=0-19% damage)

CCCn1c(-c2cccc(Cl)c2)ncc(-c2cnn(C)c(=O)c2O)c1=O [Compound 10.002]
POST Application AMARE ([1]; post-emergence application, Amaranthus retoflexus, damage score 1-5): 5 (5=80-100% damage)
POST Application SETFA (Setaria faberi (SETFA) [2]; post-emergence application, Setaria faberi, damage score 1-5): 1 (1=0-19% damage)
PRE Application ECHCG ([3]; pre-emergence application, Echinochloa crus-galli, damage score 1-5): 1 (1=0-19% damage)
PRE Application SETFA (Setaria faberi (SETFA) [4]; pre-emergence application, Setaria faberi, damage score 1-5): 1 (1=0-19% damage)
POST Application ALOMY ([5]; post-emergence application, Alopecurus myosuroides, damage score 1-5): 1 (1=0-19% damage)
POST Application IPOHE ([6]; post-emergence application, Ipomoea hederacea, damage score 1-5): 4 (4=60-79% damage)
PRE Application SOLNI (Solanum nigrum (SOLNI) [7]; pre-emergence application, Solanum nigrum, damage score 1-5): 1 (1=0-19% damage)
PRE Application ALOMY ([8]; pre-emergence application, Alopecurus myosuroides, damage score 1-5): 1 (1=0-19% damage)
PRE Application AMARE ([9]; pre-emergence application, Amaranthus retoflexus, damage score 1-5): 4 (4=60-79% damage)
POST Application ECHCG ([10]; post-emergence application, Echinochloa crus-galli, damage score 1-5): 2 (2=20-39% damage)
POST Application SOLNI (Solanum nigrum (SOLNI) [11]; post-emergence application, Solanum nigrum, damage score 1-5): 5 (5=80-100% damage)
PRE Application IPOHE ([12]; pre-emergence application, Ipomoea hederacea, damage score 1-5): 1 (1=0-19% damage)
